In patent US9167812B2, “Biocide compositions comprising amides based on 2-furoic acid and its derivatives” (Cognis IP Management GmbH, priority 2010, dated 2015):
Read-outs that look alike come from different tables or passages of the source. Each block holds one molecule with its values, some of them ahead of it.

Legend:
[1] = Solubility in water of each amide; format: physicochemical
Description: (§1) Solubility of several pesticides was measured in THF amides versus other amides. In addition the solubility in water of each amide has been checked.

[2] = Solubility of pesticides in THF amides versus other amides; format: physicochemical
Description: as §1

[3] = solubility of the amide solvent in water

- Water solubility [1, 3]: Medium
SMILES: CN(C)C(=O)c1ccco1 [Example 5, 2-Furoic acid dimethyl amide]

- Water solubility [1, 3]: Medium
SMILES: CCCCN(CCCC)C(=O)c1ccco1 [Example 6, 2-Furoic acid dibutyl amide]

- Water solubility [1]: High
SMILES: CN(C)C(=O)C1CCCO1 (stereo not shown) [Example 7, THF dimethyl amide]
- Solubility of biocides: Epoxyconazole [2]: 10 % b.w.
- Solubility of biocides: Imidacloprid [2]: 19 % b.w.
- Solubility of biocides: Oxyfluorfen [2]: 31 % b.w.
- Solubility of biocides: Tebuconazole [2]: 46 % b.w.

- Water solubility [1, 3]: Medium
SMILES: CCCCN(CCCC)C(=O)C1CCCO1 (stereo not shown) [Example 8, 2-Tetrahydrofuroic Acid Dibutylamide]

- Water solubility [1, 3]: Low
SMILES: CCCCCCCCCC(=O)N(C)C [Example C3, C10 dimethyl amide, reference compound]
- Solubility of biocides: Epoxyconazole ([2]; Epoxyconazole dissolved in the named solvent): 8 % b.w.
- Solubility of biocides: Imidacloprid ([2]; Imidacloprid dissolved in the named solvent): 2 % b.w.
- Solubility of biocides: Oxyfluorfen ([2]; Oxyfluorfen dissolved in the named solvent): 27 % b.w.
- Solubility of biocides: Tebuconazole ([2]; Tebuconazole dissolved in the named solvent): 32 % b.w.
